Source: PMC5066289, “Pharmacokinetics of anidulafungin during venovenous extracorporeal membrane oxygenation” (Critical Care, 2016)
“Also recorded” adds a separate entry of the source. Numbered stars: 1 amine (or outer) side, 2 acyl side, 3 side chain; on linkers, the order of the positions; unused ones are H or OH. Bridge positions count the residues as written; N and C are the ends. Square brackets hold non-standard residues; d marks the D form. Peptide text beside a SMILES is read from it. * marks the point of attachment. pTerphenylCO(4''-OnC5H11) = CCCCCOc1ccc(-c2ccc(-c3ccc(C(=O)*)cc3)cc2)cc1; Orn(4R-OH,5R-OH) = O=C([C@H](C[C@@H](O)[C@@H](O)N[*:3])N[*:1])[*:2]; hTyr(3S-OH,4S-OH) = N[C@H](C(=O)O)[C@H](O)[C@@H](O)c1ccc(O)cc1; Pro(3S-OH,4S-Me) = C[C@H]1CN[C@H](C(=O)O)[C@H]1O; Hyp = O=C(O)[C@@H]1C[C@@H](O)CN1

Key:
[1] = Non-compartmental pharmacokinetics of anidulafungin in a critically ill patient on venovenous ECMO (plasma and urine, HPLC); assay type: in vivo, human
Text: Echinocandins are currently considered the first-line treatment for invasive candidiasis (IC) in the intensive care unit (ICU). However, extracorporeal membrane oxygenation (ECMO), a rescue therapy used in patients with severe acute respiratory distress syndrome (ARDS), could alter the pharmacokinetics of certain drugs. We prescribed anidulafungin for suspected IC in a patient with severe ARDS on ECMO and measured the plasma concentrations of the drug using high-performance liquid chromatography (HPLC).
(§1) A patient was admitted to the ICU with septic shock secondary to peritonitis. The anti-infective treatment was based on surgical source control and broad spectrum antimicrobial therapy, including anidulafungin at usual doses. The patient developed severe ARDS. ECMO with Novalung iLA Activve™ was initiated, maintaining ultraprotective ventilation. Femoral (23 F) and jugular (19 F) cannulas (Novalung™, Germany) were inserted with 4.5 L/min blood flow and 4 L/min gas flow. Urine samples and pre-filter and post-filter blood samples were collected before starting the eight-dose anidulafungin infusion and 0.5, 1, 1.5, 2, 4, 6, 8, and 24 h after the infusion ended.
A non-compartmental pharmacokinetic analysis was performed using Abbottbase Pharmacokinetic Systems™ (Abbott Laboratories, Illinois, USA). The maximum and trough plasma concentrations (Cmax and Cmin, respectively) were estimated directly from concentration-time data. The area under the plasma concentration-time curve over the 24-h dosing interval (AUC0–24) was estimated using the linear trapezoidal rule for both pre-filter and post-filter data. Clearance (CL) was estimated as dose/AUC0–24. The apparent volume of distribution at steady state (Vss) was estimated as the product of CL and mean residence time (MRT).

[2] = Tolerability of anidulafungin in the patient on ECMO; assay type: in vivo, human; details: single critically ill patient on venovenous ECMO; usual doses
Text: as §1

SMILES: CCCCCOc1ccc(-c2ccc(-c3ccc(C(=O)N[C@H]4C[C@@H](O)[C@@H](O)NC(=O)[C@@H]5[C@@H](O)[C@@H](C)CN5C(=O)[C@H]([C@@H](C)O)NC(=O)[C@H]([C@H](O)[C@@H](O)c5ccc(O)cc5)NC(=O)[C@@H]5C[C@@H](O)CN5C(=O)[C@H]([C@@H](C)O)NC4=O)cc3)cc2)cc1 [anidulafungin] ({pTerphenylCO(4''-OnC5H11)}-[Orn(4R-OH,5R-OH)]T[Hyp][hTyr(3S-OH,4S-OH)]T[Pro(3S-OH,4S-Me)]; lactam 1-C)
- Clearance (CL) ([1]; single patient on venovenous ECMO, non-compartmental, dose/AUC0-24): 0.933 L/h
- Apparent volume of distribution at steady state (Vss) ([1]; single patient on venovenous ECMO, non-compartmental, product of CL and MRT): 18.9 L
- Urine anidulafungin concentrations ([1]; single patient on venovenous ECMO, urine samples over 24 h, HPLC, limit of detection 0.05 mg/L): negligible; also recorded: very low and close to the limit of detection
- Trough plasma concentration (Cmin) ([1]; single patient on venovenous ECMO, usual doses, eighth dose, plasma, HPLC, estimated directly from concentration-time data): 2190 ng/mL
- Maximum plasma concentration (Cmax) ([1]; single patient with severe ARDS on venovenous ECMO, anidulafungin infusion at usual doses, sampled around the eighth dose, plasma, HPLC, estimated directly from concentration-time data): 13500 ng/mL
- Tolerability / adverse effects [2]: well tolerated without relevant adverse effects
